# Measured values taken from BindingDB's records for doi:10.1021/jm00053a022 (University of Paris, 1993).
# Non-standard residues stand in square brackets, D forms with d. Residues, ends and D or L forms follow the SMILES beside them. *: point of attachment. NMeW = CN[C@@H](Cc1c[nH]c2ccccc12)C(=O)O; 1Nal = N[C@@H](Cc1cccc2ccccc12)C(=O)O; Chg = N[C@H](C(=O)O)C1CCCCC1; Phg = N[C@H](C(=O)O)c1ccccc1; OtBu = CC(C)(C)O*
# Biological target: Gastrin/cholecystokinin type B receptor (Cavia porcellus)
# Experiment: Displacement of [3H]pCCK-8 from cholecystokinin type B receptor in guinea pig brain membrane
row,SMILES,Ki [µM]
1,CCCC[C@H](NC(=O)[C@H](CC(=O)O)NC(=O)[C@@H](N)Cc1ccccc1)C(=O)N[C@H](Cc1c[nH]c2ccccc12)C(=O)OC(C)(C)C [3-(2-Amino-3-phenyl-propionylamino)-N-{1-[1-tert-butoxycarbonyl-2-(1H-indol-3-yl)-ethylcarbamoyl]-pentyl}-succinamic acid],0.16

# Biological target: Gastrin/cholecystokinin type B receptor (Cavia porcellus)
# Experiment: as above
# Remark: another data set of the same source
row,SMILES,Ki [µM]
1,CCCC[C@H](NC(=O)[C@H](CC(=O)O)NC(=O)[C@@H](N)Cc1ccccc1)C(=O)N[C@H](Cc1c[nH]c2ccccc12)C(=O)OC(C)(C)C [3-(2-Amino-3-phenyl-propionylamino)-N-{1-[1-tert-butoxycarbonyl-2-(1H-indol-3-yl)-ethylcarbamoyl]-pentyl}-succinamic acid],0.16
2,CN(C)[C@@H](Cc1cccc2ccccc12)C(=O)N[C@@H](CC(=O)O)C(=O)N[C@H](C(=O)N[C@@H](Cc1c[nH]c2ccccc12)C(=O)OC(C)(C)C)C1CCCCC1 [N-{[1-tert-Butoxycarbonyl-2-(1H-indol-3-yl)-ethylcarbamoyl]-cyclohexyl-methyl}-3-(2-dimethylamino-3-naphthalen-1-yl-propionylamino)-succinamic acid],0.074
3,CN(C(=O)[C@@H](NC(=O)[C@H](CC(=O)O)NC(=O)[C@@H](N)Cc1cccc2ccccc12)c1ccccc1)[C@@H](Cc1c[nH]c2ccccc12)C(=O)OC(C)(C)C [3-(2-Amino-3-naphthalen-1-yl-propionylamino)-N-({[1-tert-butoxycarbonyl-2-(1H-indol-3-yl)-ethyl]-methyl-carbamoyl}-phenyl-methyl)-succinamic acid] (H-[1Nal]D[Phg][NMeW]-OtBu),0.17
4,CN(C)[C@@H](Cc1cccc2ccccc12)C(=O)N[C@@H](CC(=O)O)C(=O)N[C@H](C(=O)N[C@@H](Cc1c[nH]c2ccccc12)C(=O)OC(C)(C)C)c1ccccc1 [N-{[1-tert-Butoxycarbonyl-2-(1H-indol-3-yl)-ethylcarbamoyl]-phenyl-methyl}-3-(2-dimethylamino-3-naphthalen-1-yl-propionylamino)-succinamic acid],0.039
5,CC(C)(C)OC(=O)[C@H](Cc1c[nH]c2ccccc12)NC(=O)[C@H](Cc1ccccc1)NC(=O)[C@H](CC(=O)O)NC(=O)[C@@H](N)Cc1cccc2ccccc12 [3-(2-Amino-3-naphthalen-1-yl-propionylamino)-N-{1-[1-tert-butoxycarbonyl-2-(1H-indol-3-yl)-ethylcarbamoyl]-2-phenyl-ethyl}-succinamic acid] (H-[1Nal]DFW-OtBu),0.071
6,CCCC[C@H](NC(=O)[C@H](CC(=O)O)NC(=O)[C@H](Cc1cccc2ccccc12)N(C)C)C(=O)N(C)[C@@H](Cc1c[nH]c2ccccc12)C(=O)OC(C)(C)C [N-(1-{[1-tert-Butoxycarbonyl-2-(1H-indol-3-yl)-ethyl]-methyl-carbamoyl}-pentyl)-3-(2-dimethylamino-3-naphthalen-1-yl-propionylamino)-succinamic acid],0.081
7,CN(C(=O)[C@@H](NC(=O)[C@H](CC(=O)O)NC(=O)[C@@H](N)Cc1cccc2ccccc12)C1CCCCC1)[C@@H](Cc1c[nH]c2ccccc12)C(=O)OC(C)(C)C [3-(2-Amino-3-naphthalen-1-yl-propionylamino)-N-({[1-tert-butoxycarbonyl-2-(1H-indol-3-yl)-ethyl]-methyl-carbamoyl}-cyclohexyl-methyl)-succinamic acid] (H-[1Nal]D[Chg][NMeW]-OtBu),0.14
